Reference: ChEMBL document CHEMBL1201862, “PubChem BioAssay data set” (2004)
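Method: 48-hour compound exposure of cells in 96-well plates, five concentrations, linear interpolation of endpoints. At the GI50, growth is halved.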 Active and inactive are the calls of the source. Rule as the data show it: active = GI50 up to about 1.1 µM and inactive = higher.

Legend:
Assay in all cases: NCI-60 cell line screen, 48 h
786-0 = tested on: 786-0
A549 = tested on: A549
ACHN = tested on: ACHN
CAKI-1 = tested on: CAKI-1
CCRF-CEM = tested on: CCRF-CEM
COLO 205 = tested on: COLO 205
DLD-1 = tested on: DLD-1
DMS-114 = tested on: DMS-114
EKVX = tested on: EKVX
HCT-116 = tested on: HCT-116
HCT-15 = tested on: HCT-15
HL-60 = tested on: HL-60
HOP-18 = tested on: HOP-18
HOP-62 = tested on: HOP-62
HOP-92 = tested on: HOP-92
HT-29 = tested on: HT-29
IGROV-1 = tested on: IGROV-1
K562 = tested on: K562
KM-20L2 = tested on: KM-20L2
KM12 = tested on: KM12
LXFL 529 = tested on: LXFL 529
M14 = tested on: M14
M19-MEL = tested on: M19-MEL
MOLT-4 = tested on: MOLT-4
Malme-3M = tested on: Malme-3M
NCI-H226 = tested on: NCI-H226
NCI-H23 = tested on: NCI-H23
NCI-H460 = tested on: NCI-H460
NCI-H522 = tested on: NCI-H522
OVCAR-3 = tested on: OVCAR-3
OVCAR-4 = tested on: OVCAR-4
OVCAR-8 = tested on: OVCAR-8
RPMI-8226 = tested on: RPMI-8226
RXF 393 = tested on: RXF 393
SF-268 = tested on: SF-268
SF-295 = tested on: SF-295
SF-539 = tested on: SF-539
SK-MEL-28 = tested on: SK-MEL-28
SK-MEL-2 = tested on: SK-MEL-2
SK-MEL-5 = tested on: SK-MEL-5
SK-OV-3 = tested on: SK-OV-3
SN12C = tested on: SN12C
SNB-19 = tested on: SNB-19
SNB-75 = tested on: SNB-75
SR = tested on: SR
SW-620 = tested on: SW-620
TK-10 = tested on: TK-10
U-251 = tested on: U-251
UACC-257 = tested on: UACC-257
UACC-62 = tested on: UACC-62
UO-31 = tested on: UO-31
XF498 = tested on: XF498
A498 = tested on: A498
DMS-273 = tested on: DMS-273
HCC 2998 = tested on: HCC 2998
LOX IMVI = tested on: LOX IMVI
OVCAR-5 = tested on: OVCAR-5
SNB-78 = tested on: SNB-78

C/C(=C\c1ccccc1)C(=O)c1c(C)cc(C)cc1C
GI50 (786-0): > 100 µM (inactive)
GI50 (A549): > 100 µM (inactive)
GI50 (ACHN): > 100 µM (inactive)
GI50 (CAKI-1): > 100 µM (inactive)
GI50 (CCRF-CEM): > 100 µM (inactive)
GI50 (COLO 205): > 100 µM (inactive)
GI50 (DLD-1): > 100 µM (inactive)
GI50 (DMS-114): > 100 µM (inactive)
GI50 (EKVX): > 100 µM (inactive)
GI50 (HCT-116): > 100 µM (inactive)
GI50 (HCT-15): > 100 µM
GI50 (HL-60): > 100 µM (inactive)
GI50 (HOP-18): > 100 µM (inactive)
GI50 (HOP-62): > 100 µM (inactive)
GI50 (HOP-92): > 100 µM (inactive)
GI50 (HT-29): > 100 µM (inactive)
GI50 (IGROV-1): > 100 µM (inactive)
GI50 (K562): > 100 µM (inactive)
GI50 (KM-20L2): > 100 µM (inactive)
GI50 (KM12): > 100 µM (inactive)
GI50 (LXFL 529): > 100 µM (inactive)
GI50 (M14): > 100 µM (inactive)
GI50 (M19-MEL): > 100 µM (inactive)
GI50 (MOLT-4): > 100 µM (inactive)
GI50 (Malme-3M): > 100 µM (inactive)
GI50 (NCI-H226): > 100 µM (inactive)
GI50 (NCI-H23): > 100 µM (inactive)
GI50 (NCI-H460): > 100 µM (inactive)
GI50 (NCI-H522): > 100 µM (inactive)
GI50 (OVCAR-3): > 100 µM (inactive)
GI50 (OVCAR-4): > 100 µM (inactive)
GI50 (OVCAR-8): > 100 µM (inactive)
GI50 (RPMI-8226): > 100 µM (inactive)
GI50 (RXF 393): > 100 µM (inactive)
GI50 (SF-268): > 100 µM (inactive)
GI50 (SF-295): > 100 µM (inactive)
GI50 (SF-539): > 100 µM (inactive)
GI50 (SK-MEL-28): > 100 µM (inactive)
GI50 (SK-MEL-2): > 100 µM (inactive)
GI50 (SK-MEL-5): > 100 µM (inactive)
GI50 (SK-OV-3): > 100 µM (inactive)
GI50 (SN12C): > 100 µM (inactive)
GI50 (SNB-19): > 100 µM (inactive)
GI50 (SNB-75): > 100 µM (inactive)
GI50 (SR): > 100 µM (inactive)
GI50 (SW-620): > 100 µM (inactive)
GI50 (TK-10): > 100 µM (inactive)
GI50 (U-251): > 100 µM (inactive)
GI50 (UACC-257): > 100 µM (inactive)
GI50 (UACC-62): > 100 µM (inactive)
GI50 (UO-31): > 100 µM (inactive)
GI50 (XF498): > 100 µM (inactive)

NC(=O)c1cn(Cc2ccccc2)c(=O)n1Cc1ccccc1
GI50 (786-0): > 100 µM (inactive)
GI50 (A498): > 100 µM (inactive)
GI50 (A549): > 100 µM (inactive)
GI50 (ACHN): > 100 µM (inactive)
GI50 (CAKI-1): > 100 µM (inactive)
GI50 (CCRF-CEM): > 100 µM (inactive)
GI50 (COLO 205): > 100 µM (inactive)
GI50 (DLD-1): > 100 µM (inactive)
GI50 (DMS-273): > 100 µM (inactive)
GI50 (EKVX): > 100 µM (inactive)
GI50 (HCC 2998): > 100 µM (inactive)
GI50 (HCT-116): > 100 µM (inactive)
GI50 (HCT-15): > 100 µM
GI50 (HL-60): > 100 µM (inactive)
GI50 (HOP-18): > 100 µM (inactive)
GI50 (HOP-62): > 100 µM (inactive)
GI50 (HOP-92): > 100 µM (inactive)
GI50 (HT-29): > 100 µM (inactive)
GI50 (IGROV-1): > 100 µM (inactive)
GI50 (K562): > 100 µM (inactive)
GI50 (KM-20L2): > 100 µM (inactive)
GI50 (KM12): > 100 µM (inactive)
GI50 (LOX IMVI): > 100 µM (inactive)
GI50 (LXFL 529): > 100 µM (inactive)
GI50 (M14): > 100 µM (inactive)
GI50 (M19-MEL): > 100 µM (inactive)
GI50 (MOLT-4): > 100 µM (inactive)
GI50 (NCI-H226): > 100 µM (inactive)
GI50 (NCI-H23): > 100 µM (inactive)
GI50 (NCI-H460): > 100 µM (inactive)
GI50 (NCI-H522): > 100 µM (inactive)
GI50 (OVCAR-3): > 100 µM (inactive)
GI50 (OVCAR-4): > 100 µM (inactive)
GI50 (OVCAR-5): > 100 µM (inactive)
GI50 (OVCAR-8): > 100 µM (inactive)
GI50 (RPMI-8226): > 100 µM (inactive)
GI50 (RXF 393): > 100 µM (inactive)
GI50 (SF-268): > 100 µM (inactive)
GI50 (SF-295): > 100 µM (inactive)
GI50 (SF-539): > 100 µM (inactive)
GI50 (SK-MEL-28): > 100 µM (inactive)
GI50 (SK-MEL-2): > 100 µM (inactive)
GI50 (SK-MEL-5): > 100 µM (inactive)
GI50 (SK-OV-3): > 100 µM (inactive)
GI50 (SN12C): > 100 µM (inactive)
GI50 (SNB-19): > 100 µM (inactive)
GI50 (SNB-75): > 100 µM (inactive)
GI50 (SNB-78): > 100 µM (inactive)
GI50 (SW-620): > 100 µM (inactive)
GI50 (TK-10): > 100 µM (inactive)
GI50 (U-251): > 100 µM (inactive)
GI50 (UACC-257): > 100 µM (inactive)
GI50 (UACC-62): > 100 µM (inactive)
GI50 (UO-31): > 100 µM (inactive)
GI50 (XF498): > 100 µM (inactive)

Nc1nc(N)c2ncn(CC(CO)CC(c3ccccc3)P(=O)(O)O)c2n1 (stereo not given)
GI50 (A498): > 100 µM (inactive)
GI50 (A549): > 100 µM (inactive)
GI50 (ACHN): > 100 µM (inactive)
GI50 (CAKI-1): > 100 µM (inactive)
GI50 (CCRF-CEM): > 100 µM (inactive)
GI50 (COLO 205): > 100 µM (inactive)
GI50 (DLD-1): > 100 µM (inactive)
GI50 (DMS-114): > 100 µM (inactive)
GI50 (DMS-273): > 100 µM (inactive)
GI50 (HCC 2998): > 100 µM (inactive)
GI50 (HCT-116): > 100 µM (inactive)
GI50 (HCT-15): > 100 µM
GI50 (HL-60): > 100 µM (inactive)
GI50 (HOP-18): > 100 µM (inactive)
GI50 (HOP-62): > 100 µM (inactive)
GI50 (HOP-92): > 100 µM (inactive)
GI50 (HT-29): > 100 µM (inactive)
GI50 (IGROV-1): > 100 µM (inactive)
GI50 (K562): > 100 µM (inactive)
GI50 (KM-20L2): > 100 µM (inactive)
GI50 (KM12): > 100 µM (inactive)
GI50 (LOX IMVI): > 100 µM (inactive)
GI50 (M14): 2.43 µM (inactive)
GI50 (M19-MEL): > 100 µM (inactive)
GI50 (MOLT-4): > 100 µM (inactive)
GI50 (Malme-3M): > 100 µM (inactive)
GI50 (NCI-H226): > 100 µM (inactive)
GI50 (NCI-H23): > 100 µM (inactive)
GI50 (NCI-H460): > 100 µM (inactive)
GI50 (NCI-H522): > 100 µM (inactive)
GI50 (OVCAR-3): > 100 µM (inactive)
GI50 (OVCAR-5): > 100 µM (inactive)
GI50 (OVCAR-8): > 100 µM (inactive)
GI50 (RPMI-8226): > 100 µM (inactive)
GI50 (RXF 393): > 100 µM (inactive)
GI50 (SF-268): > 100 µM (inactive)
GI50 (SF-295): > 100 µM (inactive)
GI50 (SF-539): > 100 µM (inactive)
GI50 (SK-MEL-28): > 100 µM (inactive)
GI50 (SK-MEL-2): > 100 µM (inactive)
GI50 (SK-MEL-5): > 100 µM (inactive)
GI50 (SK-OV-3): > 100 µM (inactive)
GI50 (SN12C): > 100 µM (inactive)
GI50 (SNB-19): > 100 µM (inactive)
GI50 (SNB-75): > 100 µM (inactive)
GI50 (SNB-78): > 100 µM (inactive)
GI50 (SW-620): > 100 µM (inactive)
GI50 (TK-10): > 100 µM (inactive)
GI50 (U-251): > 100 µM (inactive)
GI50 (UACC-257): > 100 µM (inactive)
GI50 (UACC-62): > 100 µM (inactive)
GI50 (UO-31): > 100 µM (inactive)
GI50 (XF498): > 100 µM (inactive)
